# Data reported in patent US20250262192A1, “PROGNOSTIC PATHWAYS FOR HIGH RISK SEPSIS PATIENTS” (KONINKLIJKE PHILIPS N.V., priority 2021, published 2025).
# “And” between values parts separate entries of the source, which are not always exact repeats. Equal values may be shown once. “Also recorded” adds a separate entry of the source.
# Experiments:
# AR pathway [1] = test: PBMCs of sepsis patients treated in vitro 24 hours with inhibitors, pathway activity score; type: cell-based, human; parameters: AR Pathway activity scores of sepsis PBMC patients: scale not given here
# Procedure: (§1) PBMC samples from healthy volunteers and sepsis patients were obtained via Tissue solutions. Briefly, cryopreserved PBMCs were first washed with washing buffer (PBS/1% BSA/2 mM EDTA), centrifuged and pellet resuspended in culture medium (RPM11640 without phenol red+8.5% charcoal stripped FBS+1% Glx+1% p/s). 0.5·10^5-1·10^6 cells were seeded per well in 24 wells plate and rested for 1 hour before treatment experiment. 10 PBMC samples from healthy donors were used to; (1) measure the baseline pathway levels, (2) activate with LPS
# (§2) Sepsis treatment model: PBMC derived from sepsis patients (n=20) were treated 24 hours with compounds, DMSO or combination of compounds. (PBMC from healthy and sepsis patients are originating from the same hospital to minimize bias in sample prep). After stimulation cells were harvested and RNA was extracted using the RNeasy mini kit (Qiagen, 74104). qPCR was performed using the Philips Research OncoSignal platform.
# (§3) In total 18 PBMCs sepsis samples were treated for 24 hours with selected inhibitors (and combinations), 6 patient samples per experiment.
# TGFbeta pathway [2] = test: as above; type: cell-based, human; parameters: scale not given here
# Procedure: as §1, §2, §3
# AR pathway [3] = test: PBMCs of healthy volunteers stimulated with LPS with or without drugs, pathway activity score; type: cell-based, human; conditions: for Healthy volunteers showing AR PAS decrease: experiment 2, PBMCs, LPS 0.5 ng/ml + drug, Etanercept: not significantly; for AR PAS: PBMCs of individual healthy volunteers
# Procedure: (§4) Sepsis treatment model: For the treatment application, the drug and LPS were added simultaneously to the cells for 24 hours. Compounds and concentrations are described in Table 11 and Table 12 for healthy volunteer PBMCs.
# as §1
# (§5) PBMCs of healthy volunteers were stimulated with 5 ng/ml LPS for 24 hours in combination with (R)-Bicalutamide and (R)-Bicalutamide+Vactosertib (experiment 1). In experiment 2, (R)-Bicalutamide and etanercept were tested with 0.5 ng/ml LPS (Table 12A for exp 1 and Table 12B for exp 2).
# TGFbeta pathway [4] = test: as above; type: cell-based, human; conditions: for Healthy volunteers showing TGFbeta PAS decrease: experiment 2, PBMCs, LPS 0.5 ng/ml + drug, Etanercept: not significantly; for TGFbeta PAS: PBMCs of individual healthy volunteers
# Procedure: as §4, §1, §5
# [5] = system: TGFbeta signaling pathway; test: THP-1 sepsis treatment model, qPCR-based STP activity score; type: cell-based; conditions: for Effect on TGFbeta PAS in LPS-stimulated THP-1 monocytes: THP-1 monocyte sepsis treatment model (Table 11); for Average TGFb STP activity score: 24 hours
# Procedure: (§6) In the treatment model the pathway inhibitor and LPS were added at the same time and the THP-1 cells were incubated for 24 hours prior to isolating RNA and determining pathway activities.
# (§7) For the first application, THP-1 cells were pre-incubated for 24 hours with the drug of choice, and subsequently LPS was added for 24 hours. For the treatment application, the drug and LPS were added simultaneously to the cells for 24 hours. Importantly: Some drugs needs processing in the body to become effective, this is the case for some of the androgen receptor (AR) pathway inhibitors, such as bicalutamide. In this case we have also tested the active variant of the drug (in the case of bicalutamide: (R-)bicalutamide).
# (§8) LPS is considered the main mediator of the sepsis symptoms. An in vitro experiment was designed where monocytes were stimulated with LPS and subsequently treated with a variety of inhibitors. Monocytes were chosen as they have been described to play a major role in sepsis, see for example Sukhacheva, [34], Clinical Laboratory Int. 26 Aug.
# as §4
# (§9) After stimulation cells were harvested and RNA was extracted using the RNeasy mini kit (Qiagen, 74104). qPCR-based STP activity scores were calculated using the Philips Research OncoSignal platform (www.philips.com/oncosignal), as described herein.
# (§10) Two concentrations of LPS 0.5 and 5 ng/ml were used in the experiments, furthermore for the THP-1 cell line an higher passage number (px-53-55) and a lower passage number (px-13-15) were used (Table 11). the THP-1 cell line with the lower passage was more reactive towards LPS activation compared to the higher passage number (data not shown).
# AR signaling pathway = test: as above; type: cell-based; conditions: for Effect on AR PAS in LPS-stimulated THP-1 monocytes: THP-1 monocyte sepsis treatment model (Table 11); for Average AR STP activity score: 24 hours
# Procedure: as §6, §7, §8, §4, §9, §10
# AR pathway [6] = test: THP-1 cell line stimulated with LPS or DHT and inhibited with Bicalutamide or Enzalutamide (Table 9A); type: cell-based; conditions: THP-1, stimulated 5 hours and subsequently inhibited
# Procedure: (§11) LPS is considered the main mediator of the sepsis symptoms. An in vitro experiment was designed where monocytes were stimulated with LPS and subsequently treated with a variety of inhibitors. […] 26 Aug.
# as §9
# TGFBeta pathway [7] = test: as above; type: cell-based; conditions: THP-1, stimulated 5 hours and subsequently inhibited
# Procedure: as §11, §9
# AR pathway [8] = test: MOLT-4 lymphoid cell line stimulated with LPS or DHT and inhibited with Bicalutamide or Enzalutamide (Table 9B); type: cell-based; conditions: stimulated 5 hours and subsequently inhibited
# Procedure: (§12) MOLT-4 (ATCC CRL-1582) were cultured in RPMI1640 media, supplemented with 10% FBS, 1% glutamax and 1% pen strep at 37° C. 5% CO2.
# as §9
# TGFBeta pathway [9] = test: as above; type: cell-based; conditions: MOLT-4, stimulated 5 hours and subsequently inhibited
# Procedure: as §12, §9
# [10] = system: AR cellular signaling pathway; test: THP-1 sepsis prevention model, qPCR-based STP activity score; type: cell-based
# [11] = system: TGFbeta cellular signaling pathway; test: as above; type: cell-based
# [12] = EXP 1, individual patient samples, Vactosertib 1 uM, Vactosertib 1 uM + R-bicalutamide 25 uM, Etanercept 10 ug/ml, R-bicalutamide 25 uM
# [13] = experiment 2, LPS 0.5 ng/ml alone, + Etanercept 10 ug/ml, or + (R)-Bicalutamide 25 uM
# [14] = THP-1 px 13-15, LPS 0.5 ng/ml alone or with Etanercept 10 ug/ml
# [15] = THP-1 px 13-15, LPS 0.5 ng/ml alone or with compound, Vactosertib 1 uM, Etanercept 1 ug/ml, R-bicalutamide 25 uM + Etanercept 0.1 ug/ml, R-bicalutamide 25 uM + Filgotinib 10 uM
# [16] = DHT (25 nM) alone or + Bicalutamide (5 uM) or Enzalutamide (5 uM)
# [17] = LPS (50 ng/mL) alone or + Bicalutamide (5 uM) or Enzalutamide (5 uM)
# [18] = THP-1 px 53-55, LPS 0.5 ng/ml alone or with compound, (R)-Bicalutamide 25 uM, Ketodarolutamide 10 uM, D4-abiraterone 10 uM
# [19] = EXP 2, individual patient samples, Resatorvid 10 uM, D4-abiraterone 10 uM, A-485 100 nM, Galunisertib 10 uM
# [20] = experiment 1, PBMCs, LPS 5 ng/ml + drug
# [21] = experiment 1, LPS 5 ng/ml 24 hours alone, + (R)-Bicalutamide 25 uM, or + (R)-Bicalutamide 25 uM + Vactosertib 1 uM
# [22] = THP-1 px 13-15, LPS 0.5 ng/ml alone or with compound, (R)-Bicalutamide 25 uM, N-desmethyl Enzalutamide 2 uM, N-Desmethyl-Apalutamide 3 uM
# [23] = THP-1 px 13-15, LPS 5 ng/ml alone or with Resatorvid 10 uM
# [24] = 24 hrs Vactosertib or DMSO, then 24 hrs LPS
# [25] = 24 hrs Vactosertib, then 24 hrs PBS
compound,measurement,setting,value
Etanercept,AR Pathway activity scores of sepsis PBMC patients,AR pathway [1]; [12],28 and 20
same,TGFbeta Pathway activity scores of sepsis PBMC patients,TGFbeta pathway [2]; [12],42 and 30 and 31
same,Healthy volunteers showing AR PAS decrease,AR pathway [3],2 out of 4
same,AR PAS,AR pathway [3]; [13],21 and 31 (2×) and 18
same,Healthy volunteers showing TGFbeta PAS decrease,TGFbeta pathway [4],3 out of 4
same,TGFbeta PAS,TGFbeta pathway [4]; [13],29 and 34 and 31 (2×)
same,Effect on TGFbeta PAS in LPS-stimulated THP-1 monocytes,[5],could lower; also recorded: could be lowered
same,Average TGFb STP activity score,[5]; [14],11.33 normalized scores
same,Average TGFb STP activity score,[5]; [15],9.67 normalized scores and 11.67 normalized scores
same,Effect on AR PAS in LPS-stimulated THP-1 monocytes,AR signaling pathway,could reduce; also recorded: could be lowered
same,Average AR STP activity score,AR signaling pathway; [14],6.33 normalized scores
same,Average AR STP activity score,AR signaling pathway; [15],5.00 normalized scores and 6.00 normalized scores
CNC(=O)c1ccc(N2C(=S)N(c3ccc(C#N)c(C(F)(F)F)c3)C(=O)C2(C)C)cc1F [Enzalutamide],AR STP activity,AR pathway [6]; [16],6.0 normalized scores
same,AR STP activity,AR pathway [6]; [17],20.4 normalized scores
same,TGFbeta STP activity,TGFBeta pathway [7]; [16],17.3 normalized scores
same,TGFbeta STP activity,TGFBeta pathway [7]; [17],33.6 normalized scores
same,AR STP activity,AR pathway [8]; [16],7.3 normalized scores
same,AR STP activity,AR pathway [8]; [17],6.3 normalized scores
same,TGFbeta STP activity,TGFBeta pathway [9]; [16],14.1 normalized scores
same,TGFbeta STP activity,TGFBeta pathway [9]; [17],14.1 normalized scores
CC(=O)c1cc(C(=O)N[C@@H](C)Cn2ccc(-c3ccc(C#N)c(Cl)c3)n2)[nH]n1 [Ketodarolutamide],Average TGFb STP activity score,[5]; [18],12.00 normalized scores
same,Effect on AR PAS in LPS-stimulated THP-1 monocytes,AR signaling pathway,could reduce
same,Average AR STP activity score,AR signaling pathway; [18],2.33 normalized scores
C[C@]12CCC(=O)C=C1CC[C@@H]1[C@@H]2CC[C@]2(C)C(c3cccnc3)=CC[C@@H]12 [D4-abiraterone],AR Pathway activity scores of sepsis PBMC patients,AR pathway [1]; [19],24 (3×) and 33
same,TGFbeta Pathway activity scores of sepsis PBMC patients,TGFbeta pathway [2]; [19],32 and 41 and 36 and 40
same,Effect on TGFbeta PAS in LPS-stimulated THP-1 monocytes,[5],could lower
same,Average TGFb STP activity score,[5]; [18],11.67 normalized scores
same,Effect on AR PAS in LPS-stimulated THP-1 monocytes,AR signaling pathway,could reduce
same,Average AR STP activity score,AR signaling pathway; [18],2.67 normalized scores
C[C@](O)(CS(=O)(=O)c1ccc(F)cc1)C(=O)Nc1ccc(C#N)c(C(F)(F)F)c1 [(R)-Bicalutamide],AR Pathway activity scores of sepsis PBMC patients,AR pathway [1]; [12],21
same,TGFbeta Pathway activity scores of sepsis PBMC patients,TGFbeta pathway [2]; [12],31 and 32
same,Healthy volunteers showing AR decrease,AR pathway [3]; [20],3 out of 6
same,AR PAS,AR pathway [3]; [21],29 and 26 (2×) and 30 and 25 and 21
same,Healthy volunteers showing AR PAS decrease,AR pathway [3],3 out of 4
same,AR PAS,AR pathway [3]; [13],26 and 28 and 30 and 24
same,Healthy volunteers showing TGFbeta decrease,TGFbeta pathway [4]; [20],3 out of 6
same,TGFbeta PAS,TGFbeta pathway [4]; [21],29 and 32 and 35 and 31 and 27 and 40
same,Healthy volunteers showing TGFbeta PAS decrease,TGFbeta pathway [4],3 out of 4
same,TGFbeta PAS,TGFbeta pathway [4]; [13],31 and 35 and 33 and 32
same,Effect on TGFbeta PAS in LPS-stimulated THP-1 monocytes,[5],could lower
same,Average TGFb STP activity score,[5]; [22],14.00 normalized scores
same,Average TGFb STP activity score,[5]; [18],11.67 normalized scores
same,Effect on AR PAS in LPS-stimulated THP-1 monocytes,AR signaling pathway,could reduce
same,Average AR STP activity score,AR signaling pathway; [22],6.67 normalized scores
same,Average AR STP activity score,AR signaling pathway; [18],1.67 normalized scores
Cc1cccc(-c2nn3c(c2-c2ccnc4ccc(C(N)=O)cc24)CCC3)n1 [Galunisertib],AR Pathway activity scores of sepsis PBMC patients,AR pathway [1]; [19],23
CC1(C)C(=O)N(c2ccc(C#N)c(C(F)(F)F)c2)C(=S)N1c1ccc(C(N)=O)c(F)c1 [N-desmethyl Enzalutamide],Average TGFb STP activity score,[5]; [22],13.33 normalized scores
same,Effect on AR PAS in LPS-stimulated THP-1 monocytes,AR signaling pathway,could reduce
same,Average AR STP activity score,AR signaling pathway; [22],6.67 normalized scores
O=C(Nc1nc2cccc(-c3ccc(CN4CCS(=O)(=O)CC4)cc3)n2n1)C1CC1 [Filgotinib],Effect on TGFbeta PAS in LPS-stimulated THP-1 monocytes,[5],could lower
CCOC(=O)C1=CCCC[C@H]1S(=O)(=O)Nc1ccc(F)cc1Cl [Resatorvid],AR Pathway activity scores of sepsis PBMC patients,AR pathway [1]; [19],24 and 31
same,TGFbeta Pathway activity scores of sepsis PBMC patients,TGFbeta pathway [2]; [19],31 and 37 and 35 and 34
same,Effect on TGFbeta PAS in LPS-stimulated THP-1 monocytes,[5],could lower; also recorded: could be lowered
same,Average TGFb STP activity score,[5]; [23],8.00 normalized scores
same,Effect on AR PAS in LPS-stimulated THP-1 monocytes,AR signaling pathway,could reduce; also recorded: could be lowered
same,Average AR STP activity score,AR signaling pathway; [23],3.67 normalized scores
Cc1cccc(-c2[nH]c(CNc3ccccc3F)nc2-c2ccc3ncnn3c2)n1 [Vactosertib],Average PAS AR,[10]; [24],17.1 normalized scores
same,Average PAS AR,[10]; [25],3.8 normalized scores
same,Effect on the AR signaling pathway,[10]; Vactosertib pretreatment followed by LPS,No effect
same,Average PAS TGFbeta,[11]; [24],9.3 normalized scores
same,Average PAS TGFbeta,[11]; [25],1.7 normalized scores
same,AR Pathway activity scores of sepsis PBMC patients,AR pathway [1]; [12],21 and 22
same,Patients showing reduction in the AR pathway (not significant),"AR pathway [1]; sepsis patient PBMCs, Etanercept 10 ug/ml in combination",2/3
same,TGFbeta Pathway activity scores of sepsis PBMC patients,TGFbeta pathway [2]; [12],31
same,Average TGFb STP activity score,[5]; [15],12.00 normalized scores
same,Average AR STP activity score,AR signaling pathway; [15],8.67 normalized scores
N#Cc1ncc(N2C(=O)C3(CCC3)N(c3ccc(C(N)=O)c(F)c3)C2=S)cc1C(F)(F)F [N-Desmethyl-Apalutamide],Average TGFb STP activity score,[5]; [22],13.33 normalized scores
same,Effect on AR PAS in LPS-stimulated THP-1 monocytes,AR signaling pathway,could reduce
same,Average AR STP activity score,AR signaling pathway; [22],7.33 normalized scores
